# Measured values reported in patent publication US8741641B2, “Methods for evaluating the stage of ovarian cancer or the survival rate of an ovarian cancer patient” (Fujifilm Corporation, priority 2007, dated 2014).
# What was measured:
# [1] = system: CTGF gene; assay: RT-PCR analysis of CTGF gene expression in ovarian cancer cell lines after treatment with demethylating reagent or deacetylation inhibitory agent; assay type: cell-based; conditions: ovarian cancer cell lines HNOA and RMG-II not expressing the CTGF gene
# Method: D: Ovarian cancer cell lines (HNOA and […]) were treated (+) or not treated (−) with 5-aza-dCyd (5 μM) for 5 days or TSA (100 ng/ml) for 12 hours. The results of RT-PCR analysis on the CTGF gene in the ovarian cancer cell lines.
# To examine the expression levels of the 7 above genes (the CTGF gene, the ENPP1 gene, the ENPP3 gene, the CRSP3 gene, the AKAP7 gene, the EPB41L2 gene, and the KIAA1913 gene), 24 types of ovarian cancer cell line, normal ovary, and a normal ovarian epithelial cell-derived immortalized cell line (OSE-2a) were subjected to reverse transcriptase (RT)-PCR. Specifically, a single-chain cDNA was synthesized from the RNA extracted from each cultured cell line using the SuperScript First-Strand Synthesis System (Invitrogen). Moreover, a glyceraldehyde-3-phosphate dehydrogenase (GAPDH) gene was used as a control. As a result, decreased expression levels of the CTGF gene, the ENPP1 gene, and the KIAA1913 gene were shown, compared with the case of normal ovary or OSE-2a cells (FIG. 1D), although chromosomal region 6q23.1-23.2 had not undergone homozygous deletion. This may be due to a mechanism other than genomic deletion, such as an epigenetic phenomenon in ovarian cancer cell lines. Moreover, in the above experiment, the ARG1 gene was not subjected to examination, since the gene is not expressed in the ovary according to the results of analyzing the gene expression database (ncbi.Nlm.nih.gov and http://www.lsbm.org/database/index.html).
# To examine if suppressed CTGF gene expression is due to DNA methylation, ovarian cancer cell lines (HNOA and RMG-II) not expressing the CTGF gene were treated using 5 μM demethylating reagent 5-aza-dCyd for 5 days or using deacetylation inhibitory agent TSA (100 ng/ml) for 12 hours. RNAs were extracted from these cells and then CTGF gene expression was examined by RT-PCR (FIG. 1D).
# [2] = system: CpG islands of the CTGF gene; assay: Demethylation of CpG islands of the CTGF gene in ovarian cancer cells cultured with demethylating reagent; assay type: cell-based; conditions: ovarian cancer cells cultured in the presence of the reagent
structure (smiles),measurement,setting,value
"Nc1ncn([C@H]2C[C@H](O)[C@@H](CO)O2)c(=O)n1 [5-aza-dCyd, 5-azadeoxycytidine]",CTGF gene expression (RT-PCR),[1]; 5 μM for 5 days,recovers its gene expression
same,CTGF gene expression (RT-PCR),"[1]; 5 μM for 5 days, listed as 5-azadeoxycytidine",recover the expression level of the CTGF gene
same,demethylation of CpG islands,[2],possible to demethylate such CpG islands
CC(/C=C/C(=O)NO)=C\[C@@H](C)C(=O)c1ccc(N(C)C)cc1 [TSA],CTGF gene expression (RT-PCR),[1]; 100 ng/ml for 12 hours,no differences
